Experimental data: patent publication US11542530B2, “Method for increasing efficiency of homologous recombination-based gene editing in plant” (INDUSTRY-ACADEMIC COOPERATION FOUNDATION GYEONGSANG …, priority 2018, dated 2023)
Where two headings read alike, the source gives them in different places.

What was measured:
[1] = system: ligase IV; settings: reported, background art; cited from earlier work
[2] = system: mammalian ligase IV; settings: mouse, reported; cited from earlier work
[3] = system: mammalian ligase IV; settings: human cell line, reported; cited from earlier work
[4] = system: ligase IV of the NHEJ pathway; assay: HDR efficiency after treatment with NHEJ inhibitor SCR7 pyrazine, tomato cotyledons with pTC217 / pTC147; assay type: cell-based; settings: for Editing efficiency: total purple spots (pTC217)/total purple spots (pTC147)×100 / Editing efficiency / Purple spot/cotyledon (Avg.) / Purple spots (Total): 21 dpi
Description: In the present invention, a method of increasing the HDR efficiency according to blocking of the NHEJ pathway by using Scr7 pyrazine chemical compound, which is an inhibitor of ligase IV of the NHEJ pathway in competitive relationship with the HDR pathway, was employed. As a result, when Scr7 pyrazine is used, the HDR efficiency had increased by 4 times compared to the comparative control group.
In order to measure the HDR frequency of Cas9, 21 days after the Agrobacterium infection, purple spots were counted from the cotyledon which has been infected with pTC217 (BeYDV with Cas9/gRNA1b) virus replicon and also from the cotyledon which has been transformed with pTC147 (35S:ANT1 T-DNA) control vector. By dividing the total number of purple spots that has been counted from callus generated with pTC217 by the total number of purple spots that has been counted from callus generated with pTC147, the HDR frequency rate was estimated.
DNA repair is mostly achieved by NHEJ pathway, and HDR-based repair occurs very limitedly. According to previous studies made on mammals, it was reported that HDR efficiency can be increased by blocking the NHEJ pathway. It is reported that SCR7 pyrazine, which is an inhibitor of mammalian ligase IV, can increase HDR as much as about 19 times in mouse, or 5 times in human cell line. […] However, no report has been made regarding the influence of SCR7 pyrazine on plant HDR. Accordingly, the effect of a treatment with different cultivation period (0, 1, 2 or 3 days) or different SCR7 pyrazine concentration (0, 1, 10 μM) was examined by the inventors of the present invention by using Cas9 structure pTC217 (BeYDV having Cas9/gRNA1b).
[Editing efficiency: total purple spots (pTC217)/total purple spots (pTC147)×100]

[5] = system: RAD51; assay: HDR efficiency after treatment with RS-1; assay type: cell-based; settings: RS-1 as activator of RAD51
Description: As a method which can be used either simultaneously or separately from the approaching method of above VI, there is a method of activating HDR pathway-regulating proteins by using chemical factors.

[6] = system: recombinase RAD51; settings: mouse, reported; cited from earlier work
[7] = Table 13 (Change 1), pTC147 (T-DNA), SCR7 1 μM, 1 day, cv. Hong-Kwang, DD→16L/8D, 28° C.
[8] = Table 13 (Change 1), pTC147 (T-DNA), SCR7 1 μM, 2 days, cv. Hong-Kwang, DD→16L/8D, 28° C.
[9] = Table 13 (Change 1), pTC147 (T-DNA), SCR7 1 μM, 3 days, cv. Hong-Kwang, DD→16L/8D, 28° C.
[10] = Table 13 (Change 1), pTC147 (T-DNA), SCR7 10 μM, 1 day, cv. Hong-Kwang, DD→16L/8D, 28° C.
[11] = Table 13 (Change 1), pTC147 (T-DNA), SCR7 10 μM, 2 days, cv. Hong-Kwang, DD→16L/8D, 28° C.
[12] = Table 13 (Change 1), pTC147 (T-DNA), SCR7 10 μM, 3 days, cv. Hong-Kwang, DD→16L/8D, 28° C.
[13] = Table 13 (Change 1), pTC217, SCR7 1 μM, 1 day, cv. Hong-Kwang, DD→16L/8D, 28° C.
[14] = Table 13 (Change 1), pTC217, SCR7 1 μM, 2 days, cv. Hong-Kwang, DD→16L/8D, 28° C.
[15] = Table 13 (Change 1), pTC217, SCR7 1 μM, 3 days, cv. Hong-Kwang, DD→16L/8D, 28° C.
[16] = Table 13 (Change 1), pTC217, SCR7 10 μM, 1 day, cv. Hong-Kwang, DD→16L/8D, 28° C.
[17] = Table 13 (Change 1), pTC217, SCR7 10 μM, 2 days, cv. Hong-Kwang, DD→16L/8D, 28° C.
[18] = Table 13 (Change 1), pTC217, SCR7 10 μM, 3 days, cv. Hong-Kwang, DD→16L/8D, 28° C.
[19] = Table 14 (Change 2), pTC147 (T-DNA), SCR7 1 μM, 1 day, cv. Hong-Kwang, DD→16L/8D, 28° C.
[20] = Table 14 (Change 2), pTC147 (T-DNA), SCR7 1 μM, 2 days, cv. Hong-Kwang, DD→16L/8D, 28° C.
[21] = Table 14 (Change 2), pTC147 (T-DNA), SCR7 1 μM, 3 days, cv. Hong-Kwang, DD→16L/8D, 28° C.
[22] = Table 14 (Change 2), pTC147 (T-DNA), SCR7 10 μM, 1 day, cv. Hong-Kwang, DD→16L/8D, 28° C.
[23] = Table 14 (Change 2), pTC147 (T-DNA), SCR7 10 μM, 2 days, cv. Hong-Kwang, DD→16L/8D, 28° C.
[24] = Table 14 (Change 2), pTC147 (T-DNA), SCR7 10 μM, 3 days, cv. Hong-Kwang, DD→16L/8D, 28° C.
[25] = Table 14 (Change 2), pTC217, SCR7 1 μM, 1 day, cv. Hong-Kwang, DD→16L/8D, 28° C.
[26] = Table 14 (Change 2), pTC217, SCR7 1 μM, 2 days, cv. Hong-Kwang, DD→16L/8D, 28° C.
[27] = Table 14 (Change 2), pTC217, SCR7 1 μM, 3 days, cv. Hong-Kwang, DD→16L/8D, 28° C.
[28] = Table 14 (Change 2), pTC217, SCR7 10 μM, 1 day, cv. Hong-Kwang, DD→16L/8D, 28° C.
[29] = Table 14 (Change 2), pTC217, SCR7 10 μM, 2 days, cv. Hong-Kwang, DD→16L/8D, 28° C.
[30] = Table 14 (Change 2), pTC217, SCR7 10 μM, 3 days, cv. Hong-Kwang, DD→16L/8D, 28° C.
[31] = pTC147 (T-DNA), SCR7 1 μM, cv. Tom-Heart, 16L/8D, 25° C.
[32] = pTC147 (T-DNA), SCR7 10 μM, cv. Tom-Heart, 16L/8D, 25° C.
[33] = pTC217, SCR7 1 μM, cv. Tom-Heart, 16L/8D, 25° C.
[34] = pTC217, SCR7 10 μM, cv. Tom-Heart, 16L/8D, 25° C.

Structure (SMILES): O=c1[nH]c(=S)[nH]c2nc(-c3ccccc3)c(-c3ccccc3)nc12 [SCR7, 2,3-dihydro-6,7-diphenyl-2-thioxo-4 (1H)-pteridinone]
- increase of HDR [1]: 2 to 19 times
- increase of HDR [2]: about 19 times
- increase of HDR [3]: ~5 times
- Editing efficiency: total purple spots (pTC217)/total purple spots (pTC147)×100 ([4]; SCR7 1 μM, cv. Tom-Heart, 16L/8D, 25° C.): 4.5
- Editing efficiency: total purple spots (pTC217)/total purple spots (pTC147)×100 ([4]; SCR7 10 μM, cv. Tom-Heart, 16L/8D, 25° C.): 11.9
- Editing efficiency ([4]; Table 13 (Change 1), SCR7 1 μM, 1 day, cv. Hong-Kwang, DD→16L/8D, 28° C.): 1.89
- Editing efficiency ([4]; Table 13 (Change 1), SCR7 1 μM, 2 days, cv. Hong-Kwang, DD→16L/8D, 28° C.): 3.39
- Editing efficiency ([4]; Table 13 (Change 1), SCR7 1 μM, 3 days, cv. Hong-Kwang, DD→16L/8D, 28° C.): 7.74
- Editing efficiency ([4]; Table 13 (Change 1), SCR7 10 μM, 1 day, cv. Hong-Kwang, DD→16L/8D, 28° C.): 3.41
- Editing efficiency ([4]; Table 13 (Change 1), SCR7 10 μM, 2 days, cv. Hong-Kwang, DD→16L/8D, 28° C.): 9.27
- Editing efficiency ([4]; Table 13 (Change 1), SCR7 10 μM, 3 days, cv. Hong-Kwang, DD→16L/8D, 28° C.): 22.93
- Purple spot/cotyledon (Avg.) [4, 7]: 28.7
- Purple spots (Total) [4, 7]: 1005
- Purple spot/cotyledon (Avg.) [4, 8]: 26.9
- Purple spots (Total) [4, 8]: 942
- Purple spot/cotyledon (Avg.) [4, 9]: 23.2
- Purple spots (Total) [4, 9]: 813
- Purple spot/cotyledon (Avg.) [4, 10]: 20.1
- Purple spots (Total) [4, 10]: 703
- Purple spot/cotyledon (Avg.) [4, 11]: 18.8
- Purple spots (Total) [4, 11]: 658
- Purple spot/cotyledon (Avg.) [4, 12]: 14.2
- Purple spots (Total) [4, 12]: 497
- Purple spot/cotyledon (Avg.) [4, 13]: 0.55
- Purple spots (Total) [4, 13]: 19
- Purple spot/cotyledon (Avg.) [4, 14]: 0.93
- Purple spots (Total) [4, 14]: 32
- Purple spot/cotyledon (Avg.) [4, 15]: 1.8
- Purple spots (Total) [4, 15]: 63
- Purple spot/cotyledon (Avg.) [4, 16]: 0.68
- Purple spots (Total) [4, 16]: 24
- Purple spot/cotyledon (Avg.) [4, 17]: 1.75
- Purple spots (Total) [4, 17]: 61
- Purple spot/cotyledon (Avg.) [4, 18]: 3.26
- Purple spots (Total) [4, 18]: 114
- Editing efficiency ([4]; Table 14 (Change 2), SCR7 1 μM, 1 day, cv. Hong-Kwang, DD→16L/8D, 28° C.): 7.45
- Editing efficiency ([4]; Table 14 (Change 2), SCR7 1 μM, 2 days, cv. Hong-Kwang, DD→16L/8D, 28° C.): 7.17
- Editing efficiency ([4]; Table 14 (Change 2), SCR7 1 μM, 3 days, cv. Hong-Kwang, DD→16L/8D, 28° C.): 7.54
- Editing efficiency ([4]; Table 14 (Change 2), SCR7 10 μM, 1 day, cv. Hong-Kwang, DD→16L/8D, 28° C.): 11.34
- Editing efficiency ([4]; Table 14 (Change 2), SCR7 10 μM, 2 days, cv. Hong-Kwang, DD→16L/8D, 28° C.): 13.52
- Editing efficiency ([4]; Table 14 (Change 2), SCR7 10 μM, 3 days, cv. Hong-Kwang, DD→16L/8D, 28° C.): 15.15
- Purple spot/cotyledon (Avg.) [4, 19]: 26.0
- Purple spots (Total) [4, 19]: 912
- Purple spot/cotyledon (Avg.) [4, 20]: 17.9
- Purple spots (Total) [4, 20]: 627
- Purple spot/cotyledon (Avg.) [4, 21]: 18.9
- Purple spots (Total) [4, 21]: 663
- Purple spot/cotyledon (Avg.) [4, 22]: 22.9
- Purple spots (Total) [4, 22]: 802
- Purple spot/cotyledon (Avg.) [4, 23]: 21.5
- Purple spots (Total) [4, 23]: 754
- Purple spot/cotyledon (Avg.) [4, 24]: 18.8
- Purple spots (Total) [4, 24]: 660
- Purple spot/cotyledon (Avg.) [4, 25]: 1.96
- Purple spots (Total) [4, 25]: 68
- Purple spot/cotyledon (Avg.) [4, 26]: 1.29
- Purple spots (Total) [4, 26]: 45
- Purple spot/cotyledon (Avg.) [4, 27]: 1.44
- Purple spots (Total) [4, 27]: 50
- Purple spot/cotyledon (Avg.) [4, 28]: 2.60
- Purple spots (Total) [4, 28]: 91
- Purple spot/cotyledon (Avg.) [4, 29]: 2.91
- Purple spots (Total) [4, 29]: 102
- Purple spot/cotyledon (Avg.) [4, 30]: 2.85
- Purple spots (Total) [4, 30]: 100
- increase of HDR efficiency ([4]; compared to the comparative control group): 4 times
- HDR frequency, dependence on treatment ([4]; cultivation period 0, 1, 2 or 3 days, 0, 1, 10 μM, pTC217): HDR frequency increases in accordance with an increase in the treatment time (period) and concentration
- Purple spot/cotyledon (Avg.) [4, 31]: 22.2
- Purple spots (Total) [4, 31]: 1154
- Purple spot/cotyledon (Avg.) [4, 32]: 21.8
- Purple spots (Total) [4, 32]: 1137
- Purple spot/cotyledon (Avg.) [4, 33]: 1
- Purple spots (Total) [4, 33]: 52
- Purple spot/cotyledon (Avg.) [4, 34]: 2.61
- Purple spots (Total) [4, 34]: 136

Structure (SMILES): O=C(Nc1ccc(Br)cc1)c1ccc(Br)c(S(=O)(=O)NCc2ccccc2)c1 [RS-1, RAD51-stimulatory compound 1]
- increase of HDR efficiency [5]: approximately 3 times
- effect on HDR efficiency [6]: can increase the HDR efficiency in mouse
